Experiments:
[1] = In vivo toxicity and tolerance in tumor-bearing mice; set-up: species or system athymic nude Foxn1nu mice
Text: The in vitro results encouraged us to explore the translational potential in a preclinical in vivo model of nude mice with grafted tumor cells. […] Tumor growth was monitored until tumors in the control group reached the ethically allowed size. […] On the other hand, many types of cancer cause a general increase in lactate dehydrogenase (LDH), and it is considered a nonspecific tumor marker.[57] Both treatments reduced LDH levels compared to those of untreated animals (PBS), reflecting the response to treatment.
(§1) To establish the subcutaneous tumor, 2 × 10^6 HCT 116 colon carcinoma cells were resuspended 1:1 in culture media and Matrigel (BD) and injected subcutaneously. Six to eight week old female athymic nude Foxn1nu mice (Harlan Iberica) were used for each point. […] Two therapeutic approaches were compared: acute and chronic (see diagram in Figure 5). Acute treatment was performed (three injections of 10 mg/kg); chronic treatment relied on injections of 1 mg/kg every 3–4 days. […] Tumor growth was monitored by personnel unaware of the group distribution. Experiments were finalized when control animals achieved the maximum tumor size approved by the Ethical Committee. Animals were sacrificed by euthanasia by CO2 inhalation. Selected organs were collected from each animal for histopathological analysis. Samples were fixed in 4% paraformaldehyde for 2 h followed by cold 70% ethanol. Plasma serum was collected to determine hepatic and renal toxicity of treatments using a SPIN200E automatic bioanalyzer (Spinreact).

[2] = 195Pt NMR reduction kinetics with glutathione; format: physicochemical; conditions: GSH 4:1 excess, DMSO/D2O (4:1), 37 °C, 2, 6, 24 h
Description: AsA presents an intracellular concentration of 1 mM, whereas the GSH concentration is 2 mM.[38] This reactivity was monitored by ^195Pt NMR at different times. Thus, by analyzing the different regions where the signals of Pt(II)/Pt(IV) species appear, it is possible to identify and assign the different compounds formed during the reaction. In most cases, the regions where the Pt(II) and Pt(IV) signals appear are separated by more than 3000 ppm.[33]
The reactivity of both complexes toward the reducing agent GSH was also studied using the DMSO/D2O (4:1) mixture. […] In the Pt(II) region, two signals appeared after 24 h at −2728 and −3405 ppm (Figure 2G). The first value is consistent with the cis-PtN2SX fraction,[41],[42] meaning that this species, once reduced to its Pt(II) homologue, coordinates with GSH by displacing a chloride ligand. The second signal corresponds to another Pt(II) moiety with more than one ligand containing sulfur atoms. […]
Each solution was then slowly added to 100 μL of a solution of the corresponding reducing agent (AsA or GSH in an excess of 4:1 against each complex) in D2O at 37 °C. […] Each sample was monitored by ^195Pt NMR at 2, 6, and 24 h.

[3] = tested on: HCT 116 colon carcinoma subcutaneous tumors; experiment: Subcutaneous HCT 116 tumor model in nude mice; format: in vivo, athymic nude Foxn1nu mice
Text: Tumor growth was monitored until tumors in the control group reached the ethically allowed size. […] On the other hand, many types of cancer cause a general increase in lactate dehydrogenase (LDH), and it is considered a nonspecific tumor marker.[57]
as §1

[4] = mice after treatment, versus cisplatin

## CC(C)N.CC(C)N.CCO[Si](CCCNC(=O)[O][Pt]([Cl])([Cl])[O]C(=O)NCCC[Si](OCC)(OCC)OCC)(OCC)OCC [Pt(IV)-biSi-2, cis-Dichloro(diisopropylamine)-trans-[3-(triethoxysilyl)propylcarbamate]platinum(IV)]
[1]; acute and chronic treatment
  Side effects (weight loss greater than 5% or abnormal postures) or deaths: No side effects (weight loss greater than 5% or abnormal postures) or deaths of the mice were observed
[1]; [4]
  Hepatic toxicity (uric acid and GPT levels in plasma): significantly lower
  Renal toxicity (creatinine levels in plasma): significantly lower
[2]
  Reduction of the Pt(IV) complex by GSH (Pt(IV) signal in 195Pt NMR): practically disappeared after 24 h
[3]; i.p., acute and chronic treatments
  Tumor volume versus control (PBS): significantly reduced tumor volume
[3]; i.p., acute and chronic treatments, Pt concentration one-third that of cisplatin
  Tumor growth compared with cisplatin: reduced tumor growth more than cisplatin
[3]; serum, versus cisplatin treatment
  LDH levels (tumor marker): reduced LDH levels significantly more
